Measured values taken from patent US11447482B1, “Imidazopyridine and oxazolopyridine derivatives and analogs thereof, methods of preparation thereof, methods of HIF-2A pathway inhibition, and induction of ferroptosis” (KUDA Therapeutics, Inc., priority 2019, dated 2022).
Where “and” joins values, the source holds several entries; their conditions need not be identical. Identical values can stand only once. Like-named read-outs stand apart in the source and are kept apart here.

Tests used:
HIF-2α = assay: Western blot of treated 786-0 cells: HIF-2α; format: cell-based, human; settings: 786-0 CCRCC cells, 24 hours
Description: (§1) Western blots were performed to determine the effects of the compounds on levels of HIF-2α and other relevant proteins. 786-0 (pVHL deficient clear cell kidney cancer cells) were purchased from ATCC were plated at 1×10E5 cells/well in 2 ml DMEM with 10% FBS/well in 6-well tissue culture plates. Cells were allowed to adhere overnight in a humidified incubator at 37° C. with 5% CO2, after which the appropriate concentrations of compounds in DMSO were added. DMSO concentrations were kept constant in all wells. After 24 hour's exposure to the compounds, cells were lysed and subjected to western blotting according to standard protocols (Polek, Talpaz et al. 2003). Antibodies for HIF-2α and Glyceraldehyde 3-Phosphate Dehydrogenase (GAPDH) were purchased from Cell Signaling Technology (Danvers, Mass.), whereas antibodies to iron responsive element binding protein 2 (IRP2) and Glutathione Peroxidase 4 (GPX4) were from Santa Cruz Biotechnology (Dallas, Tex.) and R&D Systems, Inc (Minneapolis, Minn.). Representative data in FIG. 3 show a dose-dependent effect of compounds in decreasing HIF-2α. Compounds also impact cellular iron sensing given by increased IRP2, which taken together indicate that cells sense decreased amounts of available iron. Representative data shown in FIG. 5 Part C show a dose dependent effect of the compounds on GPX4, which may indicate decreased resistance to ferroptosis.

IRP2 = assay: Western blot of treated 786-0 cells: IRP2; format: cell-based, human
Description: as §1

GPX4 = assay: Western blot of treated 786-0 cells: GPX4; format: cell-based, human; settings: higher concentrations of compound, FIG. 4 Part D
Description: as §1

[1] = Bioavailability determination of KD025HCl in mice (plasma levels after IV or PO); format: in vivo; settings: for MRT last: read-out: MRT0-last
Description: To determine the bioavailability KD025HCl, serum concentrations of KD025HCl were determined after varying durations following oral or intravenous (IV) administration. Doses were validated by LC/MS/MS.
For IV administration, 264 μl of N-Methyl-2-Pyrrolidone (NMP) was added to 1.221 mg of KD025HCl, and the solution vortexed and sonicated until complete dissolution. Then, 2.374 ml of 10% (v/v) solutol in water for injection was added, and the solution vortexed, then sonicated with a bath sonicator. The final dosing formulation of a brownish colored clear solution. A single 2 mg/kg dose (5 ml/kg) was administered IV each to nine male Swiss albino mice.
For oral administration (PO), […] of Tween-80 was added to 3.38 mg of KD025HCl, triturated, then 2.893 ml of 0.5% methyl cellulose was added in parts with continuous trituration then vortexed. The final dosing formulation was a brownish colored clear solution. A single 10 mg/kg dose (10 ml/kg) was administered PO each to nine male Swiss albino mice.
Calibration Curve & QC preparation: 2.0 μl of calibration curve standards were added to […] of blank matrix and precipitated with 200 μl of Acetonitrile containing an internal standard at 200 ng/ml. The solution was vortexed for 5 min at 850 rpm, then centrifuged at 4000 rpm for 5 min at 4° C. 110 μl of the supernatant was obtained and diluted with 130 μl of (Methanol:water, 1:1 v/v). Sample Preparation: 50 μl of sample was precipitated with 200 μl of Acetonitrile containing the internal standard at 200 ng/ml. The mixture was vortexed for 5 min at 850 rpm, then centrifuged at 4000 rpm for 5 min at 4° C. 110 μL of supernatant was obtained and diluted with 130 μL of (Methanol:water, 1:1 v/v).
Using this procedure, the plasma levels of KD025HCl after either IV or PO administration was determined, and bioavailability as well as other pharmacokinetic parameters were determined and shown in Table 6.

[2] = IV 2.00 mg/kg, 24.00 h, Swiss albino mice, BLQ: Below limits of quantitation
[3] = IV 2.00 mg/kg, Swiss albino mice, plasma
[4] = male, mouse, IV 2.00 mg/kg, Swiss albino mice, plasma
[5] = male, mouse, PO 10.00 mg/kg, Swiss albino mice, plasma

Plasma concentration, individual animals (M1-, M2-, M3-) ([1]; IV 2.00 mg/kg, 0.08 h, Swiss albino mice, 2 mg/kg): 3949.80 ng/mL and 3776.46 ng/mL | Plasma concentration, individual animals (M1-, M2-, M3-) ([1]; IV 2.00 mg/kg, 0.25 h, Swiss albino mice, 2 mg/kg): 2069.26 ng/mL and 3078.66 ng/mL | Plasma concentration, individual animals (M1-, M2-, M3-) ([1]; IV 2.00 mg/kg, 0.50 h, Swiss albino mice, 2 mg/kg): 1527.09 ng/mL and 2079.24 ng/mL | Plasma concentration, individual animals (M1-, M2-, M3-) ([1]; IV 2.00 mg/kg, 4.00 h, Swiss albino mice, 2 mg/kg): 31.51 ng/mL and 45.40 ng/mL | Plasma concentration, Mean [1, 2]: BLQ | Plasma concentration, individual animals (M1-, M2-, M3-) [1, 2]: BLQ | AUCExtra [1, 3]: 1.15% | Co [1, 3]: 5481.64 ng/mL | Plasma concentration, individual animals (M1-, M2-, M3-) ([1]; PO 10.00 mg/kg, 0.50 h, Swiss albino mice, 10 mg/kg): 1712.09 ng/mL and 2056.44 ng/mL | Plasma concentration, individual animals (M1-, M2-, M3-) ([1]; PO 10.00 mg/kg, 1.00 h, Swiss albino mice, 10 mg/kg): 784.84 ng/mL and 1081.06 ng/mL | Plasma concentration, individual animals (M1-, M2-, M3-) ([1]; PO 10.00 mg/kg, 2.00 h, Swiss albino mice, 10 mg/kg): 861.31 ng/mL and 1052.53 ng/mL | Plasma concentration, individual animals (M1-, M2-, M3-) ([1]; PO 10.00 mg/kg, 6.00 h, Swiss albino mice, 10 mg/kg): 93.52 ng/mL and 126.29 ng/mL | Plasma concentration, individual animals (M1-, M2-, M3-) ([1]; PO 10.00 mg/kg, 8.00 h, Swiss albino mice, 10 mg/kg): 50.78 ng/mL and 99.61 ng/mL | Plasma concentration, Mean ([1]; PO 10.00 mg/kg, 24.00 h, Swiss albino mice, BLQ: Below limits of quantitation): BLQ | Plasma concentration, individual animals (M1-, M2-, M3-) ([1]; PO 10.00 mg/kg, 24.00 h, Swiss albino mice, BLQ: Below limits of quantitation, 10 mg/kg): BLQ | AUCExtra ([1]; PO 10.00 mg/kg, Swiss albino mice, plasma): 9.83% | concentration at 0.08 h ([1]; male, Swiss albino, mouse, plasma, iv, 2 mg/kg, IV 2.00 mg/kg, 0.08 h, read-out: Plasma concentration, Mean): 4170 ng/mL | concentration at 0.08 h ([1]; male, Swiss albino, mouse, plasma, iv, 2 mg/kg, IV 2.00 mg/kg, 0.08 h, read-out: Plasma concentration, individual animals (M1-, M2-, M3-)): 4790 ng/mL | concentration at 0.25 h ([1]; male, Swiss albino, mouse, plasma, iv, 2 mg/kg, IV 2.00 mg/kg, 0.25 h, read-out: Plasma concentration, Mean): 2340 ng/mL | concentration at 0.25 h ([1]; male, Swiss albino, mouse, plasma, iv, 2 mg/kg, IV 2.00 mg/kg, 0.25 h, read-out: Plasma concentration, individual animals (M1-, M2-, M3-)): 1860 ng/mL | concentration at 0.5 h ([1]; male, Swiss albino, mouse, plasma, iv, 2 mg/kg, IV 2.00 mg/kg, 0.50 h, read-out: Plasma concentration, Mean): 1700 ng/mL | concentration at 0.5 h ([1]; male, Swiss albino, mouse, plasma, iv, 2 mg/kg, IV 2.00 mg/kg, 0.50 h, read-out: Plasma concentration, individual animals (M1-, M2-, M3-)): 1480 ng/mL | concentration at 1 h ([1]; male, Swiss albino, mouse, plasma, iv, 2 mg/kg, IV 2.00 mg/kg, 1.00 h, read-out: Plasma concentration, Mean): 790 ng/mL | concentration at 2 h ([1]; male, Swiss albino, mouse, plasma, iv, 2 mg/kg, IV 2.00 mg/kg, 2.00 h, read-out: Plasma concentration, Mean): 407 ng/mL | concentration at 4 h ([1]; male, Swiss albino, mouse, plasma, iv, 2 mg/kg, IV 2.00 mg/kg, 4.00 h, read-out: Plasma concentration, Mean): 38 ng/mL | concentration at 4 h ([1]; male, Swiss albino, mouse, plasma, iv, 2 mg/kg, IV 2.00 mg/kg, 4.00 h, read-out: Plasma concentration, individual animals (M1-, M2-, M3-)): 37.2 ng/mL | concentration at 8 h ([1]; male, Swiss albino, mouse, plasma, iv, 2 mg/kg, IV 2.00 mg/kg, 8.00 h, read-out: Plasma concentration, Mean): 18.6 ng/mL | Vd ([1]; male, Swiss albino, mouse, plasma, iv, 2 mg/kg, IV 2.00 mg/kg, plasma, read-out: Vd): 1.24 L/kg | Vd ([1]; male, Swiss albino, mouse, plasma, iv, 2 mg/kg, IV 2.00 mg/kg, plasma, read-out: Vss): 0.72 L/kg | concentration at 0.25 h ([1]; male, Swiss albino, mouse, plasma, po, 10 mg/kg, PO 10.00 mg/kg, 0.25 h, read-out: Plasma concentration, Mean): 1260 ng/mL | concentration at 0.5 h ([1]; male, Swiss albino, mouse, plasma, po, 10 mg/kg, PO 10.00 mg/kg, 0.50 h, read-out: Plasma concentration, Mean): 1910 ng/mL | concentration at 0.5 h ([1]; male, Swiss albino, mouse, plasma, po, 10 mg/kg, PO 10.00 mg/kg, 0.50 h, read-out: Plasma concentration, individual animals (M1-, M2-, M3-)): 1970 ng/mL | concentration at 1 h ([1]; male, Swiss albino, mouse, plasma, po, 10 mg/kg, PO 10.00 mg/kg, 1.00 h, read-out: Plasma concentration, Mean): 1140 ng/mL | concentration at 1 h ([1]; male, Swiss albino, mouse, plasma, po, 10 mg/kg, PO 10.00 mg/kg, 1.00 h, read-out: Plasma concentration, individual animals (M1-, M2-, M3-)): 1570 ng/mL | concentration at 2 h ([1]; male, Swiss albino, mouse, plasma, po, 10 mg/kg, PO 10.00 mg/kg, 2.00 h, read-out: Plasma concentration, Mean): 953 ng/mL | concentration at 2 h ([1]; male, Swiss albino, mouse, plasma, po, 10 mg/kg, PO 10.00 mg/kg, 2.00 h, read-out: Plasma concentration, individual animals (M1-, M2-, M3-)): 945 ng/mL | concentration at 4 h ([1]; male, Swiss albino, mouse, plasma, po, 10 mg/kg, PO 10.00 mg/kg, 4.00 h, read-out: Plasma concentration, Mean): 170 ng/mL | concentration at 6 h ([1]; male, Swiss albino, mouse, plasma, po, 10 mg/kg, PO 10.00 mg/kg, 6.00 h, read-out: Plasma concentration, Mean): 127 ng/mL | concentration at 6 h ([1]; male, Swiss albino, mouse, plasma, po, 10 mg/kg, PO 10.00 mg/kg, 6.00 h, read-out: Plasma concentration, individual animals (M1-, M2-, M3-)): 160 ng/mL | concentration at 8 h ([1]; male, Swiss albino, mouse, plasma, po, 10 mg/kg, PO 10.00 mg/kg, 8.00 h, read-out: Plasma concentration, Mean): 78.6 ng/mL | concentration at 8 h ([1]; male, Swiss albino, mouse, plasma, po, 10 mg/kg, PO 10.00 mg/kg, 8.00 h, read-out: Plasma concentration, individual animals (M1-, M2-, M3-)): 85.5 ng/mL | concentration at 24 h ([1]; male, Swiss albino, mouse, plasma, po, 10 mg/kg, PO 10.00 mg/kg, 24.00 h, BLQ: Below limits of quantitation, read-out: Plasma concentration, individual animals (M1-, M2-, M3-)): 1.79 ng/mL | bioavailability ([1]; male, mouse, plasma, PO 10.00 mg/kg versus IV 2.00 mg/kg, Swiss albino mice, read-out: Bio availability (% f)): 27.3% | AUC(0-inf) [1, 4]: 3050 ng·h/mL | AUC(0-t) [1, 4]: 3010 ng·h/mL | clearance [1, 4]: 10.9 mL/min/kg | half-life [1, 4]: 78.6 min | MRT last [1, 4]: 0.99 h | AUC(0-inf) [1, 5]: 4160 ng·h/mL | AUC(0-t) [1, 5]: 3750 ng·h/mL | Cmax [1, 5]: 1910 ng/mL | Tmax [1, 5]: 30 min | half-life [1, 5]: 217 min | MRT last [1, 5]: 2.03 h
SMILES: COc1ccc(-c2nnc(Nc3nc4c(OC)nccc4[nH]3)o2)cc1OC [KD025HCl, N-(4-Methoxy-1H-imidazo[4,5-c]pyridin-2-yl)-5-(3,4-dimethoxyphenyl)-1,3,4-oxadiazol-2-amine]
HIF-2α protein relative to GAPDH (western blot) (HIF-2α): decreases | IRP2 protein relative to GAPDH (western blot) (IRP2; 786-0 CCRCC cells, 24 hours): increases | IRP2 protein (western blot) at higher concentrations (IRP2; 786-0 cells, higher concentrations of KD025HCl, FIG. 4 Part D): decrease | GPX4 protein (western blot) (GPX4): decrease | Plasma concentration, individual animals (M1-, M2-, M3-) ([1]; IV 2.00 mg/kg, 1.00 h, Swiss albino mice, 2 mg/kg): 282.26 ng/mL and 11135.53 ng/mL and 952.05 ng/mL | Plasma concentration, individual animals (M1-, M2-, M3-) ([1]; IV 2.00 mg/kg, 2.00 h, Swiss albino mice, 2 mg/kg): 277.23 ng/mL and 334.05 ng/mL and 611.15 ng/mL | Plasma concentration, individual animals (M1-, M2-, M3-) ([1]; IV 2.00 mg/kg, 8.00 h, Swiss albino mice, 2 mg/kg): 11.09 ng/mL and 28.55 ng/mL and 16.02 ng/mL | Plasma concentration, individual animals (M1-, M2-, M3-) ([1]; PO 10.00 mg/kg, 0.25 h, Swiss albino mice, 10 mg/kg): 1609.45 ng/mL and 742.75 ng/mL and 1428.60 ng/mL | Plasma concentration, individual animals (M1-, M2-, M3-) ([1]; PO 10.00 mg/kg, 4.00 h, Swiss albino mice, 10 mg/kg): 179.52 ng/mL and 94.08 ng/mL and 235.20 ng/mL
